This is an account of results in PMC4019984, “Kinase and channel activity of TRPM6 are co-ordinated by a dimerization motif and pocket interaction” (Biochemical Journal, 2014).

The test system of this test is GST-tagged TRPM6-(1700–end). Kind of test: Phosphorylation site mapping of the dimerization peptide by TRPM6 kinase. It is filed as biochemical, human. Conditions: 500 μM biotinylated peptide, in vitro, trypsin digest, HPLC, Edman solid-phase sequencing. How it is done:
A kinase reaction was set up in a volume of 20 μl, with the wild-type biotinylated dimerization peptide and the active (residues 1700–end) kinase fragment in buffer A containing 0.1% 2-mercaptoethanol, 10 mM MgCl2 and 0.1 mM [γ-^32P]ATP (~1000 cpm·pmol^−1). Assays were carried out for 30 min at 30°C with shaking at […] The reaction was terminated by the addition of LDS sample buffer. DTT was added to a final concentration of 10 mM, the samples were boiled, then alkylated with 50 mM iodoacetamide and subsequently resolved by a Bis-Tris 4–12% polyacrylamide gel, which was stained with Colloidal Coomassie Blue. […] Following tryptic digestion, more than 95% of the ^32P radioactivity incorporated in the gel bands was recovered, and the samples were chromatographed on a Vydac 218TP5215 C18 column (Separations Group) equilibrated in 0.1% trifluoroacetic acid in water. The column was developed with a linear acetonitrile gradient at a flow rate of 0.2 ml/min and fractions of 0.1 ml were collected and analysed for ^32P radioactivity by Cerenkov counting. Isolated phosphopeptides were analysed by MS analysis as follows. […] The five most intense ions, above a specified minimum signal threshold, based on a low-resolution (R=20000) preview of the survey scan, were fragmented by collision-induced dissociation and recorded in the linear ion trap (target value of 5000). […]

With “biotin-C6-LKSPQEPHHHYSAIERNNLMRLSQ-TIPFTPVQLFAGEEITV [biotinylated dimerization motif peptide, biotin-C6 wild-type dimerization motif peptide; conjugated to streptavidin–Sepharose]”, the “phosphorylation site in dimerization motif peptide” value is recorded as “threonine at position 22”.
